Data from PubChem BioAssay (NCI).
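A five-concentration, 48-hour dose response in 96-well plates underlies each endpoint, interpolated linearly between surrounding concentrations. GI50: concentration for 50% inhibition of growth. At the TGI there is no net growth.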

Tests used:
Assay in all cases: growth of human tumour cells (NCI), 48 h
NCI-H522 lung = system: NCI-H522 lung
IGROV1 ovarian = system: IGROV1 ovarian
PC-3 prostate = system: PC-3 prostate
HS 578T breast = system: HS 578T breast
SN12C renal = system: SN12C renal
OVCAR-4 ovarian = system: OVCAR-4 ovarian
OVCAR-3 ovarian = system: OVCAR-3 ovarian
M14 melanoma = system: M14 melanoma
SK-MEL-28 melanoma = system: SK-MEL-28 melanoma
SF-268 CNS = system: SF-268 CNS
SF-295 CNS = system: SF-295 CNS
UACC-257 melanoma = system: UACC-257 melanoma
HCC-2998 colon = system: HCC-2998 colon
NCI-H226 lung = system: NCI-H226 lung
CCRF-CEM leukemia = system: CCRF-CEM leukemia
KM12 colon = system: KM12 colon
MDA-MB-435 = system: MDA-MB-435
ACHN renal = system: ACHN renal
SNB-75 CNS = system: SNB-75 CNS
UACC-62 melanoma = system: UACC-62 melanoma
SK-MEL-5 melanoma = system: SK-MEL-5 melanoma
HL-60(TB) leukemia = system: HL-60(TB) leukemia
K-562 leukemia = system: K-562 leukemia
RXF 393 renal = system: RXF 393 renal
SF-539 CNS = system: SF-539 CNS
MOLT-4 leukemia = system: MOLT-4 leukemia
DU-145 prostate = system: DU-145 prostate
MCF7 breast = system: MCF7 breast
UO-31 renal = system: UO-31 renal
786-0 renal = system: 786-0 renal
OVCAR-8 ovarian = system: OVCAR-8 ovarian
MDA-MB-231 breast = system: MDA-MB-231 breast
SK-MEL-2 melanoma = system: SK-MEL-2 melanoma
HT29 colon = system: HT29 colon
TK-10 renal = system: TK-10 renal
NCI/ADR-RES ovarian = system: NCI/ADR-RES ovarian
LOX IMVI melanoma = system: LOX IMVI melanoma
SK-OV-3 ovarian = system: SK-OV-3 ovarian
CAKI-1 renal = system: CAKI-1 renal
OVCAR-5 ovarian = system: OVCAR-5 ovarian
SW-620 colon = system: SW-620 colon
NCI-H460 lung = system: NCI-H460 lung
HOP-62 NSCLC = system: HOP-62 NSCLC
BT-549 breast = system: BT-549 breast
SNB-19 CNS = system: SNB-19 CNS
SR leukemia = system: SR leukemia
U251 CNS = system: U251 CNS
A549 NSCLC = system: A549 NSCLC
RPMI-8226 leukemia = system: RPMI-8226 leukemia
HCT-116 colon = system: HCT-116 colon
EKVX NSCLC = system: EKVX NSCLC
NCI-H23 lung = system: NCI-H23 lung
COLO 205 colon = system: COLO 205 colon
HCT-15 colon = system: HCT-15 colon
MALME-3M melanoma = system: MALME-3M melanoma

Structure (SMILES): COC(=O)c1ccc2c(c1)C(=O)c1c-2n(CCCN=[N+]=[N-])c(=O)c2cc(OC)c(OC)cc12
- GI50 (NCI-H522 lung): > 100 µM
- TGI (NCI-H522 lung): > 100 µM
- GI50 (IGROV1 ovarian): > 100 µM
- TGI (IGROV1 ovarian): > 100 µM
- GI50 (PC-3 prostate): > 100 µM
- TGI (PC-3 prostate): > 100 µM
- GI50 (HS 578T breast): > 100 µM
- TGI (HS 578T breast): > 100 µM
- GI50 (SN12C renal): > 100 µM
- TGI (SN12C renal): > 100 µM
- GI50 (OVCAR-4 ovarian): > 100 µM
- TGI (OVCAR-4 ovarian): > 100 µM
- GI50 (OVCAR-3 ovarian): > 100 µM
- TGI (OVCAR-3 ovarian): > 100 µM
- GI50 (M14 melanoma): > 100 µM
- TGI (M14 melanoma): > 100 µM
- GI50 (SK-MEL-28 melanoma): > 100 µM
- TGI (SK-MEL-28 melanoma): > 100 µM
- GI50 (SF-268 CNS): > 100 µM
- TGI (SF-268 CNS): > 100 µM
- GI50 (SF-295 CNS): > 100 µM
- TGI (SF-295 CNS): > 100 µM
- GI50 (UACC-257 melanoma): > 100 µM
- TGI (UACC-257 melanoma): > 100 µM
- GI50 (HCC-2998 colon): > 100 µM
- TGI (HCC-2998 colon): > 100 µM
- GI50 (NCI-H226 lung): > 100 µM
- TGI (NCI-H226 lung): > 100 µM
- GI50 (CCRF-CEM leukemia): > 100 µM
- TGI (CCRF-CEM leukemia): > 100 µM
- GI50 (KM12 colon): > 100 µM
- TGI (KM12 colon): > 100 µM
- GI50 (MDA-MB-435): > 100 µM
- TGI (MDA-MB-435): > 100 µM
- GI50 (ACHN renal): > 100 µM
- TGI (ACHN renal): > 100 µM
- GI50 (SNB-75 CNS): 8.24 µM
- TGI (SNB-75 CNS): > 100 µM
- GI50 (UACC-62 melanoma): > 100 µM
- TGI (UACC-62 melanoma): > 100 µM
- GI50 (SK-MEL-5 melanoma): > 100 µM
- TGI (SK-MEL-5 melanoma): > 100 µM
- GI50 (HL-60(TB) leukemia): 91.9 µM
- TGI (HL-60(TB) leukemia): > 100 µM
- GI50 (K-562 leukemia): > 100 µM
- TGI (K-562 leukemia): > 100 µM
- GI50 (RXF 393 renal): > 100 µM
- TGI (RXF 393 renal): > 100 µM
- GI50 (SF-539 CNS): > 100 µM
- TGI (SF-539 CNS): > 100 µM
- GI50 (MOLT-4 leukemia): 3.82 µM
- TGI (MOLT-4 leukemia): 19.1 µM
- GI50 (DU-145 prostate): > 100 µM
- TGI (DU-145 prostate): > 100 µM
- GI50 (MCF7 breast): > 100 µM
- TGI (MCF7 breast): > 100 µM
- GI50 (UO-31 renal): > 100 µM
- TGI (UO-31 renal): > 100 µM
- GI50 (786-0 renal): > 100 µM
- TGI (786-0 renal): > 100 µM
- GI50 (OVCAR-8 ovarian): > 100 µM
- TGI (OVCAR-8 ovarian): > 100 µM
- GI50 (MDA-MB-231 breast): > 100 µM
- TGI (MDA-MB-231 breast): > 100 µM
- GI50 (SK-MEL-2 melanoma): > 100 µM
- TGI (SK-MEL-2 melanoma): > 100 µM
- GI50 (HT29 colon): > 100 µM
- TGI (HT29 colon): > 100 µM
- GI50 (TK-10 renal): > 100 µM
- TGI (TK-10 renal): > 100 µM
- GI50 (NCI/ADR-RES ovarian): > 100 µM
- TGI (NCI/ADR-RES ovarian): > 100 µM
- GI50 (LOX IMVI melanoma): > 100 µM
- TGI (LOX IMVI melanoma): > 100 µM
- GI50 (SK-OV-3 ovarian): 20.8 µM
- TGI (SK-OV-3 ovarian): > 100 µM
- GI50 (CAKI-1 renal): > 100 µM
- TGI (CAKI-1 renal): > 100 µM
- GI50 (OVCAR-5 ovarian): > 100 µM
- TGI (OVCAR-5 ovarian): > 100 µM
- GI50 (SW-620 colon): > 100 µM
- TGI (SW-620 colon): > 100 µM
- GI50 (NCI-H460 lung): > 100 µM
- TGI (NCI-H460 lung): > 100 µM
- GI50 (HOP-62 NSCLC): > 100 µM
- TGI (HOP-62 NSCLC): > 100 µM
- GI50 (BT-549 breast): > 100 µM
- TGI (BT-549 breast): > 100 µM
- GI50 (SNB-19 CNS): > 100 µM
- TGI (SNB-19 CNS): > 100 µM
- GI50 (SR leukemia): 3.57 µM
- TGI (SR leukemia): 56 µM
- GI50 (U251 CNS): > 100 µM
- TGI (U251 CNS): > 100 µM
- GI50 (A549 NSCLC): > 100 µM
- TGI (A549 NSCLC): > 100 µM
- GI50 (RPMI-8226 leukemia): > 100 µM
- TGI (RPMI-8226 leukemia): > 100 µM
- GI50 (HCT-116 colon): > 100 µM
- TGI (HCT-116 colon): > 100 µM
- GI50 (EKVX NSCLC): > 100 µM
- TGI (EKVX NSCLC): > 100 µM
- GI50 (NCI-H23 lung): 15.6 µM
- TGI (NCI-H23 lung): > 100 µM
- GI50 (COLO 205 colon): > 100 µM
- TGI (COLO 205 colon): > 100 µM
- GI50 (HCT-15 colon): > 100 µM
- TGI (HCT-15 colon): > 100 µM
- GI50 (MALME-3M melanoma): > 100 µM
- TGI (MALME-3M melanoma): > 100 µM
